Reference: patent publication US9018224B2, “Substituted cyclopropyl compounds useful as GPR119 agonists” (Merck Sharp & Dohme Corp., priority 2011, dated 2015)

Target: T1, human GPR119 (Homo sapiens, UniProt Q8TDV5)
T1 sequence (Q8TDV5 1-308 limits assumed): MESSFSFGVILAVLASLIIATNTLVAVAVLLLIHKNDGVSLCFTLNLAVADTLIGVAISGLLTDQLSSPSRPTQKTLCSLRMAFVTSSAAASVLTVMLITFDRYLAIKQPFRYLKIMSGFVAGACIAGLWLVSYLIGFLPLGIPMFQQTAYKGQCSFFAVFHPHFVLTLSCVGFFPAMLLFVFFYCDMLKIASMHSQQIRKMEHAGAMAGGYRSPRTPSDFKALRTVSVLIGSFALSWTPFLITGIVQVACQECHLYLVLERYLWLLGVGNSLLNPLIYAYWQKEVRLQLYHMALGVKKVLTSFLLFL
Assay: Measurement of GPR119 signaling by cAMP (LANCE cAMP kit or HTRF) in HEK293 cells transfected with human GPR119
Format: cell-based
Settings: agonist cAMP response in HEK293 cells stably transfected with human GPR119; patent does not say which of the two cAMP formats (LANCE or HTRF)
Protocol: Measurement of GPR119 Signaling Using LANCE 384-Well cAMP Kit
The adenylate cyclase assay was constructed following the LANCE™ cAMP Kit (Perkin Elmer, AD0264) instructions. […] The reaction was stopped by incubating with the supplied detection buffer containing the europium chelate of the Eu-SA/Biotin-cAMP tracer for 3 hours. The assay was performed in duplicate in a 384 well plate for duplicate plates. […] Basal activity was determined using a DMSO control and maximum response was defined as cAMP stimulation produced by an internal agonist control. Standard cAMP concentrations were assayed concurrently for conversion of fluorescence signal to cAMP level. The data was analyzed using 4-parameter curve fit in Microsoft Excel
Measurement of GPR119 Signaling Using a Cyclic AMP (cAMP) Homogenous Time Resolved Fluorescence (HTRF) Assay
Chinese hamster ovary (CHO) cell lines stably transfected with the permissive guanine nucleotide binding protein alpha 15 (Gα15) and murine GPR119 were maintained in DMEM media containing FBS, penicillin-streptomycin, puromycin, and G418 (geneticin). […] Agonist activation of the GPR119 receptor was measured in receptor transfected cells described above, treated with compounds of this invention, using a commercial homogenous time resolved fluorescence (HTRF) kit for measurement of cAMP (CisBio, Bedford, Mass.). The assay was performed in 96-well half-volume plates (murine) or 384-well plates (human) following the manufacturers instructions. Briefly, suspended cells were incubated with a dose titration of test compound at room temperature for 60 min, lysed, and incubated with HTRF reagents for an additional 60 min. The plate was read using an Envision multilabel reader (Perkin Elmer) adjusted to read time resolved fluorescence and the cAMP concentrations were extrapolated from a cAMP calibration curve. […] The concentration of test compound required to stimulate a half-maximal response (EC50), and efficacy as compared to an internal agonist control, was determined from a sigmoidal 4-parameter curve fit of the resulting plot of normalized activity versus compound concentration.

| SMILES | EC50 |
| --- | --- |
| COCc1cnc(N2CCC([C@H]3C[C@H]3CCOc3ccc(CC(=O)N4CCc5nn[nH]c5C4)c(F)c3)CC2)nc1 [Example 57] | 3 nM |
| CCC(C)CN(C)C(=O)Cc1ccc(OCC[C@@H]2C[C@@H]2C2CCN(c3ncc(Cl)cn3)CC2)cc1F (stereo partly shown) [Example 160] | 3.1 nM |
| O=C(Cc1ccc(OCC[C@@H]2C[C@@H]2C2CCN(c3ncc(Cl)cn3)CC2)cc1F)N1CC(O)C1 [Example 65] | 0.22 nM |
| O=C(Cc1ccc(OCC[C@@H]2C[C@@H]2C2CCN(c3ncc(Cl)cn3)CC2)cc1F)N1CC(c2cccnc2)C1 [Example 122] | 0.66 nM |
| CN(C(=O)Cc1ccc(OCC[C@@H]2C[C@@H]2C2CCN(c3ncc(Cl)cn3)CC2)cc1F)C1CCCC1 [Example 82] | 2.9 nM |
| O=C(Cc1ccc(OCC[C@@H]2C[C@@H]2C2CCN(c3ncc(Cl)cn3)CC2)cc1F)N1CCc2oncc2C1 [Example 183] | 0.93 nM |
| COCc1cnc(N2CCC([C@H]3C[C@H]3CCOc3ccc(CC(=O)N4CCCC4(F)F)c(F)c3)CC2)nc1 [Example 52] | 0.36 nM |
| CN(CC1CCCCC1)C(=O)Cc1ccc(OCC[C@@H]2C[C@@H]2C2CCN(c3ncc(Cl)cn3)CC2)cc1F [Example 167] | 7.6 nM |
| CCOCc1cnc(N2CCC([C@H]3C[C@H]3CCOc3ccc(CC(=O)N4CC(OC)C4)c(F)c3)CC2)nc1 [Example 203] | 1.2 nM |
| O=C(Cc1ccc(OCC[C@@H]2C[C@@H]2C2CCN(c3ncc(Cl)cn3)CC2)cc1)N1CCCC1 [Example 3] | 2.1 nM |
| O=C(Cc1ccc(OCC[C@@H]2C[C@@H]2C2CCN(c3ncc(Cl)cn3)CC2)cc1F)N1CCc2c(C(F)(F)F)n[nH]c2C1 [Example 147] | 2.9 nM |
| CN(CCCO)C(=O)Cc1ccc(OCC[C@@H]2C[C@@H]2C2CCN(c3ncc(Cl)cn3)CC2)cc1F [Example 153] | 1.6 nM |
| O=C(Cc1ccc(OCC[C@@H]2C[C@@H]2C2CCN(c3ncc(Cl)cn3)CC2)cc1F)N1CCc2nc(C3CC3)oc2C1 [Example 150] | 3.2 nM |
| COCc1cnc(N2CCC([C@H]3C[C@H]3CCOc3ccc(Cc4nncs4)c(F)c3)CC2)nc1 [Example 248, 2-[4-((1R,2S)-2-{2-[3-fluoro-4-(1,3,4-thiadiazol-2-ylmethyl)phenoxy]ethyl}cyclopropyl)piperidin-1-yl]-5-(methoxymethyl)pyrimidine] | 4.2 nM |
| COCc1cnc(N2CCC([C@H]3C[C@H]3CCOc3cc(F)c(CC(=O)N4CC(O)C4)c(F)c3)CC2)nc1 [Example 218, 1-({2,6-difluoro-4-[2-((1S,2R)-2-{1-[5-(methoxymethyl)pyrimidin-2-yl]piperidin-4-yl}cyclopropyl)ethoxy]phenyl}acetyl)azetidin-3-ol] | 1.6 nM |
| CC1c2ncc(C(F)(F)F)n2CCN1C(=O)Cc1ccc(OCC[C@@H]2C[C@@H]2C2CCN(c3ncc(Cl)cn3)CC2)cc1F (stereo partly shown) [Example 180] | 0.82 nM |
| CC1(C)CCN1C(=O)Cc1ccc(OCC[C@@H]2C[C@@H]2C2CCN(c3ncc(Cl)cn3)CC2)cc1F [Example 97] | 3.2 nM |
| O=C(Cc1ccc(OCC[C@@H]2C[C@@H]2C2CCN(c3ncc(Cl)cn3)CC2)cc1F)NC1CCC1 [Example 63] | 4.2 nM |
| CCc1cnc(N2CCC([C@H]3C[C@H]3CCOc3ccc(CC(=O)N(C)C)c(C)c3)CC2)nc1 [Example 19] | 2.3 nM |
| O=C(Cc1ccc(OCC[C@@H]2C[C@@H]2C2CCN(c3ncc(Cl)cn3)CC2)cc1F)NCC1CC1 [Example 77, 2-[4-(2-(1S,2R)-2-[1-(5-chloropyrimidin-2-yl)piperidin-4-yl]cyclopropylethoxy)-2-fluorophenyl]-N-(cyclopropylmethyl)acetamide] | 1.5 nM |
| CC1CN(C(=O)Cc2ccc(OCC[C@@H]3C[C@@H]3C3CCN(c4ncc(Cl)cn4)CC3)cc2F)Cc2nnc(C(F)(F)F)n21 (stereo partly shown) [Example 175] | 1.1 nM |
| COC1CN(C(=O)Cc2ccc(OCC[C@@H]3C[C@@H]3C3CCN(c4ncc(Cl)cn4)CC3)cc2F)C1 [Example 69] | 0.17 nM |
| O=C(Cc1ccc(OCC[C@@H]2C[C@@H]2C2CCN(c3ncc(Cl)cn3)CC2)cc1F)N1CCn2c(Cc3ccccc3)cnc2C1 [Example 181] | 6.1 nM |
| COCc1cnc(N2CCC([C@H]3C[C@H]3CCOc3ccc(CC(=O)N4CC(O)C4)c(F)c3)CC2)nc1 [Example 42] | 3.4 nM |
| O=C(Cc1ccc(OCC[C@@H]2C[C@@H]2C2CCN(c3ncc(Cl)cn3)CC2)cc1F)N1CCOCC1 [Example 80] | 0.76 nM |
| O=C(Cc1ccc(OCC[C@@H]2C[C@@H]2C2CCN(c3ncc(Cl)cn3)CC2)cc1F)N1CCCC1CO (stereo partly shown) [Example 108] | 2.5 nM |
| CN(CC(N)=O)C(=O)Cc1ccc(OCC[C@@H]2C[C@@H]2C2CCN(c3ncc(Cl)cn3)CC2)cc1F [Example 159] | 3.7 nM |
| COc1cnc(N2CCC([C@H]3C[C@H]3CCOc3ccc(CC(=O)N4CC(OC)C4)c(F)c3)CC2)nc1 [Example 34] | 0.98 nM |
| O=C(Cc1ccc(OCC[C@@H]2C[C@@H]2C2CCN(c3ncc(Cl)cn3)CC2)cc1F)N1CCc2[nH]nnc2C1 [Example 152] | 1.9 nM |

More lines, in order of falling EC50, values ahead:

| EC50 | SMILES |
| --- | --- |
| 9.4 nM | CN(CC(C)(C)C)C(=O)Cc1ccc(OCC[C@@H]2C[C@@H]2C2CCN(c3ncc(Cl)cn3)CC2)cc1F [Example 168] |
| 9.2 nM | CC(CO)NC(=O)Cc1ccc(OCC[C@@H]2C[C@@H]2C2CCN(c3ncc(Cl)cn3)CC2)cc1F (stereo partly shown) [Example 116] |
| 7.7 nM | COCc1cnc(N2CCC([C@H]3C[C@H]3CCOc3ccc(Cc4nnco4)c(F)c3)CC2)nc1 [Example 246] |
| 6 nM | Cn1nc(C(F)(F)F)c2c1CN(C(=O)Cc1ccc(OCC[C@@H]3C[C@@H]3C3CCN(c4ncc(Cl)cn4)CC3)cc1F)CC2 [Example 189] |
| 5.8 nM | O=C(Cc1ccc(OCC[C@@H]2C[C@@H]2C2CCN(c3ncc(Cl)cn3)CC2)cc1F)NC(C1CC1)C1CC1 [Example 110] |
| 5.5 nM | COCc1cnc(N2CCC([C@H]3C[C@H]3CCOc3ccc(CC(=O)N4CCC4)cc3F)CC2)nc1 [Example 251] |
| 4.4 nM | COCc1cnc(N2CCC([C@H]3C[C@H]3CCOc3ccc(CC(=O)N(C)C4CC4)c(F)c3)CC2)nc1 [Example 55] |
| 2.9 nM | COCc1cnc(N2CCC([C@H]3C[C@H]3CCOc3ccc(CC(=O)N4CC(F)C4)cc3)CC2)nc1 [Example 11] |
| 2 nM | COCc1cnc(N2CCC([C@H]3C[C@H]3CCOc3cc(F)c(CC(=O)N4CC(C(C)(C)O)C4)c(F)c3)CC2)nc1 [Example 222] |
| 1.6 nM | COCc1cnc(N2CCC([C@H]3C[C@H]3CCOc3cc(F)c(CC(=O)N(C)C)cc3F)CC2)nc1 [Example 209, 2-{2,5-difluoro-4-[2-((1S,2R)-2-{1-[5-(methoxymethyl)pyrimidin-2-yl]piperidin-4-yl}cyclopropyl)ethoxy]phenyl}-N, N-dimethylacetamide] |
| 1.3 nM | COCc1cnc(N2CCC([C@H]3C[C@H]3CCOc3ccc(CC(=O)N(C)C)c(F)c3)CC2)nc1 [Example 47] |
| 0.81 nM | O=C(Cc1ccc(OCC[C@@H]2C[C@@H]2C2CCN(c3ncc(Cl)cn3)CC2)cc1F)N1CC(n2cccn2)C1 [Example 119] |
| 0.81 nM | COCc1cnc(N2CCC([C@H]3C[C@H]3CCOc3ccc(CC(=O)N4CC(OC)C4)c(F)c3)CC2)nc1 [Example 45] |
| 0.78 nM | Cc1nc2c(s1)CN(C(=O)Cc1ccc(OCC[C@@H]3C[C@@H]3C3CCN(c4ncc(Cl)cn4)CC3)cc1F)CC2 [Example 176] |
| 0.41 nM | COCc1cnc(N2CCC([C@H]3C[C@H]3CCOc3cc(F)c(CC(=O)N(C)C4COC4)c(F)c3)CC2)nc1 [Example 226] |
| 0.4 nM | CC1(O)CN(C(=O)Cc2ccc(OCC[C@@H]3C[C@@H]3C3CCN(c4ncc(Cl)cn4)CC3)cc2F)C1 [Example 66] |
| 0.3 nM | CCOCc1cnc(N2CCC([C@H]3C[C@H]3CCOc3ccc(CC(=O)N4CC(F)(F)C4)c(F)c3)CC2)nc1 [Example 202] |
